Patent publication EP2326328B1, “USE OF DIHYDRALAZINE FOR THE TREATMENT OF DISEASES RELATED TO ELEVATED SEMICARBAZIDE SENSITIVE AMINE-OXIDASE (SSAO) ACTIVITY” (Semmelweis Egyetem, priority 2008, dated 2010)
“And” between values parts separate entries of the source, which are not always exact repeats. Identical values can stand only once. Like-named read-outs stand apart in the source and are kept apart here.

Legend:
SSAO = target: T1, SSAO (Rattus norvegicus, UniProt O08590); test: serum SSAO activity in vivo in rats after sc treatment; settings: for Specific activity (pmol/mg/h) Mean / Inhibition (%) / Specific activity / inhibition at 10 µmol/kg / inhibition at 100 µmol/kg: rat serum SSAO; for Specific activity (pmol/mg/h) Mean / Specific activity: control mean 3.373; for inhibition at 10 µmol/kg / inhibition at 100 µmol/kg: rat, sc
T1 construct: from tissue; host or cells: rat serum (blood supernatant) of treated animals
T1 sequence (O08590 28-763 limits assumed): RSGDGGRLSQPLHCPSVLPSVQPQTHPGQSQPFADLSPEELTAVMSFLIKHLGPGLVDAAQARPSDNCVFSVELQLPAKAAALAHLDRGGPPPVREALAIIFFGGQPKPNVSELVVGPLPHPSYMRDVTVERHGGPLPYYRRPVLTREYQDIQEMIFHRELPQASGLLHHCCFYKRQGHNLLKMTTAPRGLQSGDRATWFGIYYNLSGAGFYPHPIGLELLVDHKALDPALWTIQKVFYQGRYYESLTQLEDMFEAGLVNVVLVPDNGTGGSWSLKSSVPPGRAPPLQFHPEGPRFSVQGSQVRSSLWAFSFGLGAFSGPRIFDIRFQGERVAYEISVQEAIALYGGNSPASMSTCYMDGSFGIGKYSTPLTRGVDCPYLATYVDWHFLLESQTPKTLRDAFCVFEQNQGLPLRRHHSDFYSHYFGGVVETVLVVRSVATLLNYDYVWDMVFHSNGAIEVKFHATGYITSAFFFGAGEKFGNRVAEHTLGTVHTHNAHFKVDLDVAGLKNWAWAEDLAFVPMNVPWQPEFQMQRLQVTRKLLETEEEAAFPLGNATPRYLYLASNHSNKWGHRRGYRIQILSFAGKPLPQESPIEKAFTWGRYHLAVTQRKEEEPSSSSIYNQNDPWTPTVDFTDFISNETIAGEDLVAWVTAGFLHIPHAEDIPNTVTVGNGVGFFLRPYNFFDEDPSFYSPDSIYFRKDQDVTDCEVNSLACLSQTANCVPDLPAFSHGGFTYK
Method: Rats were treated sc with 0.1 or 0.01 M dihydralazine solution (0.1 ml/100 g) once daily for 1-5 days. On the appropriate day, 2 hours after the treatment the rats were decapitated and their blood was collected without anticoagulant in plastic centrifuge tubes. Blood samples were centrifuged at a low frequency (800 rpm/min) and the supernatant was used for the determination of SSAO activity applying ^14C-benzylamine substrate.
SSAO inhibition expressed in pmol/mg protein/hour units and in % values (mean ± S.D.) in the two treated groups is shown in table 2 and 3.

[1] = blood pressure and pulse of treated type 2 diabetic patients; assay type: in vivo, human; settings: oral 14.5 mg dihydralazine sulphate twice daily; for RRsyst: blood pressure (systolic): before treatment 153
Method: After giving their informed consent, patients participating in the study were treated for 56 days taking ½ tablet twice daily of a pharmaceutical composition containing 28.9 mg dihydralazine sulphate (i.e. the ½ tablet contained 14.5 mg dihydralazine sulphate).
To measure the efficacy and monitor the safety of the treatment, the following examinations were carried out before starting the treatment and at the 1., 7., 14., 28. and 56. day of the treatment: • 1. ocular examinations: visual acuity (ETDRS chart), slit-lamp examination, measurement of intraocular pressure with applanation tonometry, fundus biomicroscopy with pupil dilation, digital fundus photography. The grade of macular edema was determined via measuring retinal thickness with optical coherency tomography (OCT). • 2. internal medicine examinations: anamnesis, physical examinations, blood pressure, pulse, urine examination. • 3. laboratory examinations: blood glucose, HbA1c, liver function, kidney function, microalbuminuria, metabolic panel of the blood , lipids, CRP.
In the table the following abbreviations were used: • BMI: body mass index - weight (kg) / height (m^2) • RRsyst: blood pressure (systolic) (Hgmm) • RRdiast: blood pressure (diastolic) (Hgmm) • OCT CST (central subfield thickness): the average thickness of the central 1-mm area of the macula • OCT CPT (center point thickness): the thickness of the center point of the retina; normally that is the thinnest point of the macula Table 4.

[2] = sc 10 µmol/kg (1.9 mg/kg) once daily, 24 h, individual animals
[3] = sc 10 µmol/kg (1.9 mg/kg) once daily, 48 h, individual animals
[4] = sc 10 µmol/kg (1.9 mg/kg) once daily, 72 h, individual animals
[5] = sc 10 µmol/kg (1.9 mg/kg) once daily, 96 h, individual animals
[6] = sc 10 µmol/kg (1.9 mg/kg) once daily, 120 h, individual animals
[7] = sc 100 µmol/kg (19 mg/kg) once daily, 24 h, individual animals
[8] = sc 100 µmol/kg (19 mg/kg) once daily, 48 h, individual animals
[9] = sc 100 µmol/kg (19 mg/kg) once daily, 72 h, individual animals
[10] = sc 100 µmol/kg (19 mg/kg) once daily, 96 h, individual animals
[11] = sc 100 µmol/kg (19 mg/kg) once daily, 120 h, individual animals

NNc1nnc(NN)c2ccccc12 [dihydralazine]
SSAO inhibition (SSAO; animal experiments, low dose without appreciable blood pressure lowering effect): significant SSAO inhibition
Specific activity (pmol/mg/h) Mean (SSAO; sc 10 µmol/kg (1.9 mg/kg) once daily, 24 h, group mean): 1.580 pmol/mg/h
Inhibition (%) (SSAO; [2]): 37% and 57%
Specific activity (SSAO; [2]): 2.11 pmol/mg/h and 1.19 pmol/mg/h and 1.44 pmol/mg/h
Specific activity (pmol/mg/h) Mean (SSAO; sc 10 µmol/kg (1.9 mg/kg) once daily, 48 h, group mean): 1.595 pmol/mg/h
Inhibition (%) (SSAO; [3]): 52% and 55%
Specific activity (SSAO; [3]): 1.66 pmol/mg/h and 1.61 pmol/mg/h and 1.52 pmol/mg/h
Specific activity (pmol/mg/h) Mean (SSAO; sc 10 µmol/kg (1.9 mg/kg) once daily, 72 h, group mean): 1.244 pmol/mg/h
Inhibition (%) (SSAO; [4]): 69%
Specific activity (SSAO; [4]): 1.25 pmol/mg/h and 1.06 pmol/mg/h and 1.43 pmol/mg/h
Specific activity (pmol/mg/h) Mean (SSAO; sc 10 µmol/kg (1.9 mg/kg) once daily, 96 h, group mean): 1.344 pmol/mg/h
Inhibition (%) (SSAO; [5]): 71% and 42%
Specific activity (SSAO; [5]): 0.97 pmol/mg/h and 1.94 pmol/mg/h and 1.12 pmol/mg/h
Specific activity (pmol/mg/h) Mean (SSAO; sc 10 µmol/kg (1.9 mg/kg) once daily, 120 h, group mean): 1.425 pmol/mg/h
Inhibition (%) (SSAO; [6]): 77% and 14% and 82%
Specific activity (SSAO; [6]): 0.78 pmol/mg/h and 2.90 pmol/mg/h and 0.59 pmol/mg/h
Specific activity (pmol/mg/h) Mean (SSAO; sc 100 µmol/kg (19 mg/kg) once daily, 24 h, group mean): 1.094 pmol/mg/h
Inhibition (%) (SSAO; [7]): 69%
Specific activity (SSAO; [7]): 1.13 pmol/mg/h and 1.05 pmol/mg/h and 1.11 pmol/mg/h
Specific activity (pmol/mg/h) Mean (SSAO; sc 100 µmol/kg (19 mg/kg) once daily, 48 h, group mean): 1.481 pmol/mg/h
Inhibition (%) (SSAO; [8]): 47% and 61%
Specific activity (SSAO; [8]): 1.33 pmol/mg/h and 1.80 pmol/mg/h and 1.31 pmol/mg/h
Specific activity (pmol/mg/h) Mean (SSAO; sc 100 µmol/kg (19 mg/kg) once daily, 72 h, group mean): 1.177 pmol/mg/h
Inhibition (%) (SSAO; [9]): 66%
Specific activity (SSAO; [9]): 1.11 pmol/mg/h and 1.26 pmol/mg/h and 1.15 pmol/mg/h
Specific activity (pmol/mg/h) Mean (SSAO; sc 100 µmol/kg (19 mg/kg) once daily, 96 h, group mean): 0.859 pmol/mg/h
Inhibition (%) (SSAO; [10]): 73%
Specific activity (SSAO; [10]): 0.55 pmol/mg/h and 1.12 pmol/mg/h and 0.91 pmol/mg/h
Specific activity (pmol/mg/h) Mean (SSAO; sc 100 µmol/kg (19 mg/kg) once daily, 120 h, group mean): 0.730 pmol/mg/h
Inhibition (%) (SSAO; [11]): 62% and 90% and 83%
Specific activity (SSAO; [11]): 1.29 pmol/mg/h and 0.34 pmol/mg/h and 0.56 pmol/mg/h
inhibition at 10 µmol/kg (SSAO; sc 10 µmol/kg (1.9 mg/kg) once daily, 24 h, group mean, read-out: Inhibition (%) Mean): 53%
inhibition at 10 µmol/kg (SSAO; sc 10 µmol/kg (1.9 mg/kg) once daily, 48 h, group mean, read-out: Inhibition (%) Mean): 53%
inhibition at 10 µmol/kg (SSAO; sc 10 µmol/kg (1.9 mg/kg) once daily, 48 h, individual animals, read-out: Inhibition (%)): 51%
inhibition at 10 µmol/kg (SSAO; sc 10 µmol/kg (1.9 mg/kg) once daily, 72 h, group mean, read-out: Inhibition (%) Mean): 63%
inhibition at 10 µmol/kg (SSAO; sc 10 µmol/kg (1.9 mg/kg) once daily, 72 h, individual animals, read-out: Inhibition (%)): 63%
inhibition at 10 µmol/kg (SSAO; sc 10 µmol/kg (1.9 mg/kg) once daily, 96 h, group mean, read-out: Inhibition (%) Mean): 60%
inhibition at 10 µmol/kg (SSAO; sc 10 µmol/kg (1.9 mg/kg) once daily, 120 h, group mean, read-out: Inhibition (%) Mean): 58%
inhibition at 100 µmol/kg (SSAO; sc 100 µmol/kg (19 mg/kg) once daily, 24 h, group mean, read-out: Inhibition (%) Mean): 68%
inhibition at 100 µmol/kg (SSAO; sc 100 µmol/kg (19 mg/kg) once daily, 24 h, individual animals, read-out: Inhibition (%)): 67%
inhibition at 100 µmol/kg (SSAO; sc 100 µmol/kg (19 mg/kg) once daily, 48 h, group mean, read-out: Inhibition (%) Mean): 56%
inhibition at 100 µmol/kg (SSAO; sc 100 µmol/kg (19 mg/kg) once daily, 48 h, individual animals, read-out: Inhibition (%)): 60%
inhibition at 100 µmol/kg (SSAO; sc 100 µmol/kg (19 mg/kg) once daily, 72 h, group mean, read-out: Inhibition (%) Mean): 65%
inhibition at 100 µmol/kg (SSAO; sc 100 µmol/kg (19 mg/kg) once daily, 72 h, individual animals, read-out: Inhibition (%)): 67%
inhibition at 100 µmol/kg (SSAO; sc 100 µmol/kg (19 mg/kg) once daily, 96 h, group mean, read-out: Inhibition (%) Mean): 75%
inhibition at 100 µmol/kg (SSAO; sc 100 µmol/kg (19 mg/kg) once daily, 96 h, individual animals, read-out: Inhibition (%)): 84%
inhibition at 100 µmol/kg (SSAO; sc 100 µmol/kg (19 mg/kg) once daily, 120 h, group mean, read-out: Inhibition (%) Mean): 78%
pulse ([1]; 1. patient, 14. day, before treatment 60): 69 beats/min
RRdiast: blood pressure (diastolic) ([1]; 1. patient, 14. day, before treatment 63): 70 Hgmm
RRsyst: blood pressure (systolic) ([1]; 1. patient, 14. day): 154 Hgmm
pulse ([1]; 1. patient, 28. day, before treatment 60): 69 beats/min
RRdiast: blood pressure (diastolic) ([1]; 1. patient, 28. day, before treatment 63): 68 Hgmm
RRsyst: blood pressure (systolic) ([1]; 1. patient, 28. day): 152 Hgmm
pulse ([1]; 1. patient, 56. day, before treatment 60): 60 beats/min
RRdiast: blood pressure (diastolic) ([1]; 1. patient, 56. day, before treatment 63): 67 Hgmm
RRsyst: blood pressure (systolic) ([1]; 1. patient, 56. day): 161 Hgmm
RRdiast: blood pressure (diastolic) ([1]; 2. patient, 14. day, before treatment 76): 65 Hgmm
pulse ([1]; 2. patient, 14. day, before treatment 79): 89 beats/min
RRsyst: blood pressure (systolic) ([1]; 2. patient, 14. day): 150 Hgmm
RRdiast: blood pressure (diastolic) ([1]; 2. patient, 28. day, before treatment 76): 74 Hgmm
pulse ([1]; 2. patient, 28. day, before treatment 79): 93 beats/min
RRsyst: blood pressure (systolic) ([1]; 2. patient, 28. day): 158 Hgmm
RRdiast: blood pressure (diastolic) ([1]; 2. patient, 56. day, before treatment 76): 64 Hgmm
pulse ([1]; 2. patient, 56. day, before treatment 79): 77 beats/min
RRsyst: blood pressure (systolic) ([1]; 2. patient, 56. day): 126 Hgmm
blood pressure ([1]; type 2 diabetic patients): did not cause significant change of blood pressure
